# Measured values as given in PMC12024912, “Druggability Studies of Benzene Sulfonamide Substituted Diarylamide (E3) as a Novel Diuretic” (Biomedicines, 2025).
# Where two headings read alike, the source gives them in different places.
# Experiments:
# [1] = Blood stability, rabbit; type: in vitro ADME; conditions: plasma, n=3
# Procedure: (§1) Plasma from mice, rats, rabbits, and humans was obtained from blood after centrifugation at 3000 r/min for 10 min. Simulated gastric fluid (SGF, pH = 1, containing pepsin) and simulated intestinal fluid (SIF, pH = 6.8, containing trypsin) were configured previously in the experiments. SD rats and mice were collected, and after removing the mucus layer from the small intestine and colon, 20 times the volume of liquid bacterial culture medium was added. An intestinal microbiota suspension was obtained after anaerobic cultivation on a shaking table at 37 °C for 12 h. In the aforementioned systems, E3 was added at a final concentration of 1 μmol/L at 37 °C for different incubation times (0, 10, 20, 30, 60, 120, and 240 min). In liver metabolic stability assays, E3 was incubated with liver microsomes or liver homogenate from mice or rats for 60 min at 37 °C. The stop solution, 5 ng/mL tolbutamide (internal standard, IS) in acetonitrile, was added to stop the metabolic process. Post-centrifugation (18,000× g, 10 min, 4 °C), supernatants were subjected to liquid chromatography–tandem mass spectrometry (LC–MS/MS). Analyte-to-IS peak area ratios quantified residual percentages via Equation (2):Remaining% = (E3peak area/ISpeak area at different time)/(E3peak area/ISpeak area at 0 min) × 100%.(2)
# [2] = Liver homogenate metabolic stability, rat; type: in vitro ADME
# Procedure: as §1
# [3] = Intestinal microbiota stability, mouse; type: in vitro ADME
# Procedure: as §1
# [4] = Blood stability, rat; type: in vitro ADME; conditions: plasma, n=3
# Procedure: as §1
# [5] = test system: mice; experiment: Mouse sperm malformation assay; conditions: mouse, in vivo, po, 2000 mg/kg/day
# Procedure: Male mice were randomly divided into three groups: control group (0.5% CMC-Na), E3 2000 mg/kg group, and positive group (50 mg/kg cyclophosphamide (CP), administered via intraperitoneal injection). E3 and the control group were administered once daily by intragastric gavage. All mice received treatment for 5 consecutive days. After the initial dosing period, […], the mice were euthanized, and evaluation of sperm parameters was performed as follows:
# Caudal epididymides were dissected into fragments in physiological saline and incubated (37 °C, 5% CO2, 10 min). Spermatozoa were isolated through nylon mesh filtration. Semen parameters were quantified using computer-assisted semen analysis (CASA). Eosin-stained smears (20 μL sperm suspension) were analyzed to examine sperm morphology. […] Sperm shape abnormalities, such as banana, headless, without a hook, amorphous, double-tailed, and fat head, were identified and counted. In addition, the testis was reserved for morphological analysis. The spermatogenesis was graded from 1 to 10 using the Johnsen score.
# [6] = target: T1, UT-B (Rattus norvegicus, UniProt P97689); experiment: Erythrocyte lysis assay for UT-B inhibition, rat erythrocytes; type: cell-based
# T1 construct: endogenous in cells; host or cells: erythrocytes from male SD rats
# T1 sequence (P97689 1-384): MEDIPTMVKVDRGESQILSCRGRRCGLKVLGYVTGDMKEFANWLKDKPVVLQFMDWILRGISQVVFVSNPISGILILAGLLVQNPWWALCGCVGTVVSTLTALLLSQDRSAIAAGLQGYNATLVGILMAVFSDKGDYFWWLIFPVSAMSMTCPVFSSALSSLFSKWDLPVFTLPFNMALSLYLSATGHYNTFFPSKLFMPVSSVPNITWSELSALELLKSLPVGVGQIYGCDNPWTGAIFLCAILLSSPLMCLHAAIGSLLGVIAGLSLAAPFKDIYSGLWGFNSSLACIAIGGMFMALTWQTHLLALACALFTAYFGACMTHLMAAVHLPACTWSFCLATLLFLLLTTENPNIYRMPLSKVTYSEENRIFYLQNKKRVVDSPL
# Procedure: The erythrocyte lysis assay was modified from a method described previously. Erythrocytes obtained from veins were diluted to a hematocrit value of 2% in hyperosmolar PBS containing 1.25 mol/L urea and 5 mmol/L glucose and incubated at r.t. for 2 h. Then, 99 μL erythrocyte suspension from a reservoir was added to each well of a 96-well round-bottom microplate, then 1 μL of the testing compound (500, 125, 31.25, 7.81, 1.95, 0.488, 0.122, 0.031, 0.0076 μmol/L dissolved in DMSO) was added to erythrocyte suspension and shook it up with microoscillator for 1 min. Following 5 min incubation, 20 μL erythrocyte suspension was transferred into 96-well black microplates preloaded with 180 μL isotonic PBS (10 mM, urea-free). Erythrocyte lysis was monitored at 710 nm optical density (OD710) for 6 min, with lysis rates calculated using control values from the same plate as Equation (1):Lysis (%) = 100 × (Aneg − Atest)/(Aneg − Apos)(1) where Atest is the absorbance value from the test well, Aneg is from a negative no-lysis control well, and Apos is from a positive full-lysis control.
# [7] = Blood stability, human; type: in vitro ADME; conditions: plasma, n=3
# Procedure: as §1
# [8] = target: T1, UT-B; experiment: Stopped-flow measurement of erythrocyte urea permeability; type: cell-based
# Procedure: Erythrocyte urea permeabilities were assessed via stopped-flow light scattering (SX20, Applied Photophysics, Leatherhead, UK) following established protocols. Erythrocyte was acquired from rat blood and suspended in isotonic PBS (hematocrit 0.5%). Then, the erythrocyte was incubated with test compounds for 5 min and quickly mixed with 500 mmol/L urea dissolved in PBS. Following an initial osmotic shrinking phase, the kinetics of cell volume increase due to urea influx were measured by monitoring the time course of 90° scattered light intensity at 530 nm. […] Keep samples and PBS at 4 °C to reduce the influence of free diffusion. To assay reversibility, compounds were added to erythrocytes for 5 min and then washed with PBS 3 times by 2000 r/min centrifugation before stopped-flow measurements. To determine inhibition on urea efflux, erythrocytes were incubated with 500 mmol/L urea in PBS for 2 h, then mixed with PBS without urea.
compound,measurement,setting,value
"CC(=O)c1ccc(C(=O)Nc2cccc(NS(=O)(=O)c3ccccc3)c2)o1 [Compound E3, 5-acetyl-N-(3-(phenylsulfonamido)phenyl)furan-2-carboxamide]",remaining at 1 μmol/L,[1],35.7%
same,"CLhep, rat liver homogenate","[2]; calculated with 45 mg/g liver, 40 g liver/kg",46.4 mL/min/kg
same,remaining at 1 h,"[2]; rat, liver homogenate, 60 min incubation, 37 °C, n=3",69%
same,"remaining at 4 h, 1 μmol/L","[3]; colon microbiota suspension, n=3, read-out: Mouse colon microbiota (remaining %)",89.3%
same,"remaining at 4 h, 1 μmol/L","[3]; small intestine microbiota suspension, n=3, read-out: Mouse small intestine microbiota (remaining %)",87.3%
same,remaining at 1 μmol/L,[4],46.8%
same,"testicular tissue, H&E staining",[5],no significant differences
same,"maximum inhibition rate, rat cells",[6]; erythrocyte lysis assay,approximately 100%
same,IC50,"[6]; erythrocyte lysis model, rat, n = 3, means, read-out: IC50 (μM) Rat",0.01 µM
same,IC50,"[6]; red blood cell lysis assay, read-out: IC50 for UT-B-promoted urea transport, rats",0.0076 µM
same,remaining at 1 μmol/L,[7],54.1%
same,reversibility of UT-B inhibition,[8]; 1 μM followed by washout with PBS,reversible
same,UT-B-mediated urea influx into erythrocytes,"[8]; stopped-flow light scattering, rat erythrocytes",dose-dependently inhibit
same,UT-B-mediated urea efflux,"[8]; stopped-flow, erythrocytes preloaded with high urea, mixed with isotonic PBS",inhibited UT-B-mediated urea efflux in a dose-dependent manner
